Some test systems named below: Malme-3M; OVCAR-5; MDA-MB-435; OVCAR-8; UO-31; HCC 2998; COLO 205; UACC-62; HOP-62; SNB-19; T47D; HCT-116; CCRF-CEM; U-251; K562; NCI-H23; PC-3; HCT-15; BT-549; NCI/ADR-RES.
Holding throughout (experiment): DTP human tumour cell line panel, 48 h

The source of these data is ChEMBL document CHEMBL1201862, “PubChem BioAssay data set” (2004).

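Five concentrations, 48 hours, 96-well plates. At the GI50, growth is halved.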 The source made the active and inactive calls. Cut-off read from the data, not from the text of the source: active = GI50 up to about 1.1 µM and inactive = higher.

What is called GI50 is the concentration giving 50% growth inhibition. In the case of `O=C(CC1(O)C(=O)Nc2c(Cl)ccc(Cl)c21)c1ccco1` (stereo not given), the GI50 in the assay on Malme-3M is 20 µM (inactive); in the assay on OVCAR-5, 20.9 µM (inactive); with MDA-MB-435, 1.85 µM (inactive); in the assay with OVCAR-8 it was 27.2 µM (inactive); with UO-31 it was 35.8 µM (inactive); with HCC 2998 it was 33.5 µM (inactive). In addition, the GI50 was 17.5 µM (inactive) in the assay with COLO 205; 13.5 µM (inactive) in the assay on UACC-62; 29.6 µM (inactive) with HOP-62; 42.3 µM (inactive) in the assay with SNB-19; 35.6 µM (inactive) with T47D; 14 µM (inactive) in the assay with HCT-116. The GI50 in the assay with CCRF-CEM is 5.09 µM (inactive); in the assay with U-251, 22.7 µM (inactive); with K562, > 10 µM (inactive); in the assay with NCI-H23 it was 15.2 µM (inactive); in the assay on PC-3 it was 28.2 µM (inactive); in the assay on HCT-15 it was 25.2 µM. In addition, the GI50 with BT-549 was 36.5 µM (inactive); with NCI/ADR-RES it was 23.7 µM (inactive).
`CC1CCC2C(C)C3C(CC4C5CC=C6CC(OC7OC(CO)C(O)C(OC8OC(CO)C(O)C(O)C8O)C7OC7OC(C)C(O)C(O)C7O)CCC6(C)C5CCC43C)N2C1` (stereo not given): the GI50 was 27.7 µM (inactive) in the assay with Malme-3M; 14.3 µM (inactive) in the assay on OVCAR-5; 9.12 µM (inactive) in the assay on MDA-MB-435; 15 µM (inactive) with OVCAR-8; 6.37 µM (inactive) in the assay on UO-31; 18.1 µM (inactive) with HCC 2998. Besides, the GI50 is 16.7 µM (inactive) in the assay on COLO 205; 13.8 µM (inactive) in the assay with UACC-62; 17.3 µM (inactive) in the assay with HOP-62; 10.5 µM (inactive) in the assay with SNB-19; 19.3 µM (inactive) in the assay with T47D; 11.1 µM (inactive) in the assay with HCT-116. For the same compound, the GI50 in the assay with CCRF-CEM is 9.66 µM (inactive); with U-251, 16 µM (inactive); with K562 it was 16 µM (inactive); with NCI-H23 it was 14.7 µM (inactive); with PC-3 it was 14.9 µM (inactive); in the assay on HCT-15 it was 17.3 µM. The results for the GI50 in the assay on BT-549 and in the assay on NCI/ADR-RES were 16.5 µM (inactive) and 17.9 µM (inactive), respectively.
On to `O=c1c2ncn(COCCCl)c2n(-c2ccccc2)c(=S)n1-c1ccccc1`, for which the GI50 is > 100 µM (inactive) in the assay on Malme-3M; > 100 µM (inactive) with OVCAR-5; > 100 µM (inactive) with MDA-MB-435; > 100 µM (inactive) with OVCAR-8; 57.3 µM (inactive) in the assay on UO-31; > 100 µM (inactive) in the assay on HCC 2998. Further, the GI50 in the assay with COLO 205, in the assay on UACC-62, in the assay on HOP-62, in the assay with SNB-19, in the assay on T47D and in the assay on HCT-116 was > 100 µM (inactive) in each case. Besides, the GI50 with CCRF-CEM was > 100 µM (inactive); in the assay on U-251, > 100 µM (inactive); in the assay with K562 it was > 100 µM (inactive); with NCI-H23, > 100 µM (inactive); in the assay on PC-3 it was > 100 µM (inactive); in the assay on HCT-15, greater than 100 µM. Moreover, the GI50 in the assay with BT-549 and in the assay on NCI/ADR-RES was > 100 µM (inactive) throughout.
Regarding `CC(NC(=O)C1(N)CCCC1)C(=O)O` (stereo not given), the GI50 in the assay on Malme-3M, with OVCAR-5, in the assay on MDA-MB-435, with OVCAR-8, in the assay on UO-31 and with HCC 2998 was > 100 µM (inactive) each time. For the same compound, the GI50 in the assay on COLO 205, in the assay with UACC-62, in the assay on HOP-62, in the assay with SNB-19, with T47D and in the assay with HCT-116 was > 100 µM (inactive) in each case. The GI50 in the assay on CCRF-CEM is > 100 µM (inactive); in the assay with U-251, > 100 µM (inactive); in the assay with K562, > 100 µM (inactive); with NCI-H23, > 100 µM (inactive); in the assay on PC-3, > 100 µM (inactive); with HCT-15, greater than 100 µM. Moreover, the GI50 in the assay on BT-549 and in the assay with NCI/ADR-RES was > 100 µM (inactive) throughout.
For the compound `O=C(c1ccc(Cl)cc1)N(C(=S)OCCOc1ccccc1)c1ccccc1`, the GI50 was 29 µM (inactive) in the assay on Malme-3M; 17 µM (inactive) with OVCAR-5; 17 µM (inactive) with MDA-MB-435; 20.3 µM (inactive) in the assay with OVCAR-8; 0.186 µM (active) with UO-31; 19.5 µM (inactive) with HCC 2998. Also, the GI50 is 19.9 µM (inactive) in the assay with COLO 205; 16.3 µM (inactive) with UACC-62; 23 µM (inactive) with HOP-62; 19.2 µM (inactive) with SNB-19; 20 µM (inactive) in the assay on T47D; 16.2 µM (inactive) with HCT-116. Further, the GI50 is 13.7 µM (inactive) in the assay with CCRF-CEM; 16.2 µM (inactive) in the assay with U-251; 30.4 µM (inactive) with K562; 18.1 µM (inactive) in the assay on NCI-H23; 21.1 µM (inactive) with PC-3; 19.3 µM in the assay with HCT-15. Further, the GI50 in the assay with BT-549 is 20.2 µM (inactive); in the assay with NCI/ADR-RES, 23.9 µM (inactive).
In the case of `C[n+]1c2ccccc2n2c3ccccc3c(NCCCN3CCOCC3)c(C#N)c21`, the GI50 was 2.05 µM (inactive) in the assay with Malme-3M; 1.44 µM (inactive) with OVCAR-5; 1.78 µM (inactive) with MDA-MB-435; 0.843 µM (active) in the assay on OVCAR-8; 2.95 µM (inactive) with UO-31; 1.27 µM (inactive) with HCC 2998. Moreover, the GI50 in the assay on COLO 205 is 0.891 µM (active); in the assay with UACC-62, 3.03 µM (inactive); with HOP-62 it was 1.27 µM (inactive); in the assay with SNB-19, 3.08 µM (inactive); with T47D, 2.32 µM (inactive); in the assay on HCT-116 it was 0.703 µM (active). Further, the GI50 in the assay with CCRF-CEM is 8.17 µM (inactive); in the assay on U-251, 1.52 µM (inactive); in the assay on K562 it was 1.73 µM (inactive); with NCI-H23 it was 1.29 µM (inactive); in the assay on PC-3, 1.31 µM (inactive); in the assay with HCT-15, 4.65 µM. The GI50 with BT-549 is 12 µM (inactive); with NCI/ADR-RES, > 41.4 µM (inactive).
Take `CC(C)(C)OC(=O)c1ccc(NCc2cc(O)ccc2O)cc1`: the GI50 is 1.85 µM (inactive) with Malme-3M; 6.58 µM (inactive) in the assay on OVCAR-5; 2.96 µM (inactive) in the assay with MDA-MB-435; 2.13 µM (inactive) with OVCAR-8; 1.22 µM (inactive) in the assay on UO-31; 7.36 µM (inactive) in the assay on HCC 2998. The GI50 with COLO 205 was 2.08 µM (inactive); in the assay on UACC-62, 7.16 µM (inactive); with HOP-62, 8.97 µM (inactive); with SNB-19, 8.07 µM (inactive); in the assay with T47D, 1.61 µM (inactive); with HCT-116, 3.49 µM (inactive). Also, the GI50 is 0.363 µM (active) in the assay on CCRF-CEM; 1.95 µM (inactive) in the assay on U-251; 2.03 µM (inactive) in the assay on K562; 4.93 µM (inactive) in the assay with NCI-H23; 1.5 µM (inactive) in the assay with PC-3; 1.32 µM with HCT-15. Further, the GI50 in the assay with BT-549 is 2 µM (inactive); with NCI/ADR-RES, 1.73 µM (inactive).
In the case of `CN1C(=O)[C@H](c2c[nH]c3ccccc23)[C@H](c2c[nH]c3ccccc23)C1=O`, the GI50 with Malme-3M is 36.5 µM (inactive); in the assay on OVCAR-5, > 41.6 µM (inactive); in the assay on MDA-MB-435, 26.4 µM (inactive); in the assay with OVCAR-8, 31 µM (inactive); with UO-31 it was 15.5 µM (inactive); with HCC 2998 it was > 52.5 µM (inactive). In addition, the GI50 in the assay on COLO 205 is 1.33 µM (inactive); in the assay with UACC-62, 22.2 µM (inactive); with HOP-62, 27.7 µM (inactive); in the assay with SNB-19, 41.4 µM (inactive); in the assay with T47D, 87.9 µM (inactive); with HCT-116 it was 25.8 µM (inactive). Also, the GI50 with CCRF-CEM is 18.6 µM (inactive); in the assay on U-251 it was 35.4 µM (inactive); in the assay on K562, 28.9 µM (inactive); in the assay with NCI-H23, 22.3 µM (inactive); in the assay with PC-3 it was 24.3 µM (inactive); in the assay on HCT-15, 24.8 µM. The GI50 with BT-549 was 19.1 µM (inactive); in the assay with NCI/ADR-RES, 27 µM (inactive).
Turning to `COc1ccc2cc3c4cc5c(cc4cc[n+]3cc2c1OC)OCO5`, the GI50 is 4.83 µM (inactive) with Malme-3M; 47.5 µM (inactive) in the assay with OVCAR-5; 6.95 µM (inactive) with MDA-MB-435; 2.37 µM (inactive) with OVCAR-8; 36.3 µM (inactive) in the assay with UO-31; 22 µM (inactive) in the assay on HCC 2998. Further, the GI50 with COLO 205 is 2.08 µM (inactive); in the assay with UACC-62 it was 12.3 µM (inactive); in the assay on HOP-62, 5.6 µM (inactive); with SNB-19, 3.15 µM (inactive); in the assay on T47D, 17.4 µM (inactive); with HCT-116, 15.1 µM (inactive). The GI50 with CCRF-CEM was 6.43 µM (inactive); in the assay with U-251, 0.615 µM (active); with K562, 16.6 µM (inactive); with NCI-H23, 8.09 µM (inactive); with PC-3 it was 14.2 µM (inactive); in the assay on HCT-15 it was 83.2 µM. Besides, the GI50 with BT-549 was 1.63 µM (inactive); in the assay with NCI/ADR-RES it was > 100 µM (inactive).
On to `COC1=C(C)C(=O)c2c(c(COC(N)=O)c3n2CC(OC(C)=O)C3OC(C)=O)C1=O` (stereo not given), for which the 50% growth inhibitory concentration (GI50) with Malme-3M was 0.0493 µM (active); in the assay on OVCAR-5, 0.267 µM (active); in the assay on MDA-MB-435, 0.165 µM (active); with OVCAR-8, 0.0789 µM (active); in the assay with UO-31, 0.15 µM (active); in the assay on HCC 2998, 0.111 µM (active). Also, the GI50 in the assay on COLO 205 is 0.116 µM (active); with UACC-62, 0.0857 µM (active); in the assay with HOP-62, 0.126 µM (active); in the assay with SNB-19 it was 0.433 µM (active); in the assay with T47D it was 0.757 µM (active); in the assay on HCT-116, 0.0204 µM (active). The GI50 is 0.153 µM (active) in the assay on CCRF-CEM; 0.0944 µM (active) in the assay on U-251; 0.0191 µM (active) with K562; 0.0436 µM (active) in the assay on NCI-H23; 0.131 µM (active) with PC-3; 0.0126 µM in the assay on HCT-15. Further, the GI50 in the assay on BT-549 was 0.296 µM (active); with NCI/ADR-RES, 0.127 µM (active).
